Source: patent US10286034B2, “Uses of bremelanotide in therapy for female sexual dysfunction” (Palatin Technologies, Inc., priority 2012, dated 2019)

Key:
[1] = system: premenopausal and postmenopausal women with FSAD; assay: Intranasal Phase 2 studies: efficacy, adverse events, discontinuation; type: in vivo, human
Procedure: In the bremelanotide premenopausal arm, 42.5% of the subjects were discontinued due to hypertension, nausea, vomiting or myalgia. Subjects received a 10 mg intranasal dose of bremelanotide, with premenopausal subjects determined to have a mean plasma concentration of 88.5±51.9 ng/mL and a % CV of 58.6, and postmenopausal subjects determined to have a mean plasma concentration of 93.2±68.5 ng/mL and a % CV of 73.5. The minimum and maximum plasma concentration levels for all women at thirty minutes post dose range from 0.0 ng/mL to 207.0 ng/mL.
Results with premenopausal women in a placebo-controlled, randomized, double-blind, parallel group, at-home exploratory study to evaluate the efficacy and safety of intranasally administered bremelanotide in subjects with female sexual arousal disorder (FSAD) were compared against results in the study of Example 1. In the intranasal study, a total of 76 premenopausal subjects were randomized, with 40 subjects to receive bremelanotide and 36 to receive placebo. Twenty-two subjects treated with bremelanotide and 29 treated with placebo completed the study, with 16 subjects who received bremelanotide (40%) discontinuing from the study due to an adverse event. This compares to the study of Example 1, in which as shown by Table 6 only 8% of subjects on the 1.75 mg subcutaneous dose discontinuing due to an adverse event.

[2] = Example 1: adverse events and discontinuations during double-blind treatment; type: in vivo, human
Procedure: A multi-centered, placebo-controlled, randomized, parallel group trial with fixed dose levels and designed to identify appropriate doses of bremelanotide administered by subcutaneous injection in premenopausal females with FSAD and/or HSDD, under the conditions of home use, was conducted. Subjects received a single dose of placebo (subject-blinded) in-clinic followed by 4 weeks of subject-blinded placebo treatment at home (subjects self-administered treatment as needed). Subjects who continued to qualify for the trial then received 2 single in-clinic doses of randomized treatment (double-blind; approximately one week apart), followed by 12 weeks of double-blind treatment at home (subjects self-administered treatment as needed).
Randomization occurred immediately prior to the first in-clinic dose of double-blind treatment. Study drug and placebo was provided as pre-filled syringes in 0.3 mL volume, with subjects instructed on self-administration into the anterior thigh or abdomen.

[3] = 10 mg intranasal, premenopausal, 40 subjects randomized

Structure (SMILES): CCCC[C@H](NC(C)=O)C(=O)N[C@H]1CC(=O)NCCCC[C@@H](C(=O)O)NC(=O)[C@H](Cc2c[nH]c3ccccc23)NC(=O)[C@H](CCCNC(=N)N)NC(=O)[C@@H](Cc2ccccc2)NC(=O)[C@H](Cc2c[nH]cn2)NC1=O [bremelanotide, Ac-Nle-cyclo(-Asp-His-D-Phe-Arg-Trp-Lys)-OH]
- subjects discontinuing from the study due to an adverse event, number [1, 3]: 16
- subjects discontinuing from the study due to an adverse event, percent [1, 3]: 40%
- subjects reporting at least one adverse event ([1]; intranasal, postmenopausal subjects): 100%
- sexual desire and arousal compared to placebo ([1]; intranasal, premenopausal and postmenopausal women with FSAD, two Phase 2 trials): increase sexual desire and arousal compared to placebo
- subjects discontinued due to hypertension, nausea, vomiting or myalgia ([1]; intranasal, premenopausal arm): 42.5%
- subjects reporting at least one adverse event ([1]; intranasal, premenopausal subjects): 92.5%
- patients discontinued based on adverse events ([2]; 0.75 mg): 2
- patients discontinued based on preset blood pressure change criterion ([2]; 0.75 mg): 4
- Any adverse event leading to withdrawal, number of subjects ([2]; 0.75 mg SC (N = 100)): 2
- Any adverse event leading to withdrawal, percent of subjects ([2]; 0.75 mg SC (N = 100)): (2%)
- Any adverse event, number of subjects ([2]; 0.75 mg SC (N = 100)): 64
- Any adverse event, percent of subjects ([2]; 0.75 mg SC (N = 100)): (64%)
- Flushing leading to withdrawal, number of subjects ([2]; 0.75 mg SC (N = 100)): 0
- Flushing, number of subjects ([2]; 0.75 mg SC (N = 100)): 17
- Flushing, percent of subjects ([2]; 0.75 mg SC (N = 100)): (17%)
- Headache, number of subjects ([2]; 0.75 mg SC (N = 100)): 9
- Headache, percent of subjects ([2]; 0.75 mg SC (N = 100)): (9%)
- Hypertension leading to withdrawal, number of subjects ([2]; 0.75 mg SC (N = 100)): 2
- Hypertension leading to withdrawal, percent of subjects ([2]; 0.75 mg SC (N = 100)): (2%)
- Injection-site pain, number of subjects ([2]; 0.75 mg SC (N = 100)): 6
- Injection-site pain, percent of subjects ([2]; 0.75 mg SC (N = 100)): (6%)
- Injection-site pruritus, number of subjects ([2]; 0.75 mg SC (N = 100)): 4
- Injection-site pruritus, percent of subjects ([2]; 0.75 mg SC (N = 100)): (4%)
- Nausea leading to withdrawal, number of subjects ([2]; 0.75 mg SC (N = 100)): 0
- Nausea, number of subjects ([2]; 0.75 mg SC (N = 100)): 18
- Nausea, percent of subjects ([2]; 0.75 mg SC (N = 100)): (18%)
- Upper respiratory tract infection, number of subjects ([2]; 0.75 mg SC (N = 100)): 8
- Upper respiratory tract infection, percent of subjects ([2]; 0.75 mg SC (N = 100)): (8%)
- Vomiting leading to withdrawal, number of subjects ([2]; 0.75 mg SC (N = 100)): 0
- patients discontinued based on adverse events ([2]; 1.25 mg): 4
- patients discontinued based on preset blood pressure change criterion ([2]; 1.25 mg): 9
- Any adverse event leading to withdrawal, number of subjects ([2]; 1.25 mg SC (N = 99)): 4
- Any adverse event leading to withdrawal, percent of subjects ([2]; 1.25 mg SC (N = 99)): (4%)
- Any adverse event, number of subjects ([2]; 1.25 mg SC (N = 99)): 61
- Any adverse event, percent of subjects ([2]; 1.25 mg SC (N = 99)): (62%)
- Flushing leading to withdrawal, number of subjects ([2]; 1.25 mg SC (N = 99)): 1
- Flushing leading to withdrawal, percent of subjects ([2]; 1.25 mg SC (N = 99)): (1%)
- Flushing, number of subjects ([2]; 1.25 mg SC (N = 99)): 14
- Flushing, percent of subjects ([2]; 1.25 mg SC (N = 99)): (14%)
- Headache, number of subjects ([2]; 1.25 mg SC (N = 99)): 9
- Headache, percent of subjects ([2]; 1.25 mg SC (N = 99)): (9%)
- Hypertension leading to withdrawal, number of subjects ([2]; 1.25 mg SC (N = 99)): 0
- Injection-site pain, number of subjects ([2]; 1.25 mg SC (N = 99)): 6
- Injection-site pain, percent of subjects ([2]; 1.25 mg SC (N = 99)): (6%)
- Injection-site pruritus, number of subjects ([2]; 1.25 mg SC (N = 99)): 4
- Injection-site pruritus, percent of subjects ([2]; 1.25 mg SC (N = 99)): (4%)
- Nausea leading to withdrawal, number of subjects ([2]; 1.25 mg SC (N = 99)): 0
- Nausea, number of subjects ([2]; 1.25 mg SC (N = 99)): 22
- Nausea, percent of subjects ([2]; 1.25 mg SC (N = 99)): (22%)
- Upper respiratory tract infection, number of subjects ([2]; 1.25 mg SC (N = 99)): 5
- Upper respiratory tract infection, percent of subjects ([2]; 1.25 mg SC (N = 99)): (5%)
- Vomiting leading to withdrawal, number of subjects ([2]; 1.25 mg SC (N = 99)): 1
- Vomiting leading to withdrawal, percent of subjects ([2]; 1.25 mg SC (N = 99)): (1%)
- patients discontinued based on adverse events ([2]; 1.75 mg): 8
- patients discontinued based on preset blood pressure change criterion ([2]; 1.75 mg): 7
- Any adverse event leading to withdrawal, number of subjects ([2]; 1.75 mg SC (N = 98)): 8
- Any adverse event leading to withdrawal, percent of subjects ([2]; 1.75 mg SC (N = 98)): (8%)
- Any adverse event, number of subjects ([2]; 1.75 mg SC (N = 98)): 67
- Any adverse event, percent of subjects ([2]; 1.75 mg SC (N = 98)): (68%)
- Flushing leading to withdrawal, number of subjects ([2]; 1.75 mg SC (N = 98)): 1
- Flushing leading to withdrawal, percent of subjects ([2]; 1.75 mg SC (N = 98)): (1%)
- Flushing, number of subjects ([2]; 1.75 mg SC (N = 98)): 17
- Flushing, percent of subjects ([2]; 1.75 mg SC (N = 98)): (17%)
- Headache, number of subjects ([2]; 1.75 mg SC (N = 98)): 14
- Headache, percent of subjects ([2]; 1.75 mg SC (N = 98)): (14%)
- Hypertension leading to withdrawal, number of subjects ([2]; 1.75 mg SC (N = 98)): 1
- Hypertension leading to withdrawal, percent of subjects ([2]; 1.75 mg SC (N = 98)): (1%)
- Injection-site pain, number of subjects ([2]; 1.75 mg SC (N = 98)): 7
- Injection-site pain, percent of subjects ([2]; 1.75 mg SC (N = 98)): (7%)
- Injection-site pruritus, number of subjects ([2]; 1.75 mg SC (N = 98)): 6
- Injection-site pruritus, percent of subjects ([2]; 1.75 mg SC (N = 98)): (6%)
- Nausea leading to withdrawal, number of subjects ([2]; 1.75 mg SC (N = 98)): 3
- Nausea leading to withdrawal, percent of subjects ([2]; 1.75 mg SC (N = 98)): (3%)
- Nausea, number of subjects ([2]; 1.75 mg SC (N = 98)): 24
- Nausea, percent of subjects ([2]; 1.75 mg SC (N = 98)): (24%)
- Upper respiratory tract infection, number of subjects ([2]; 1.75 mg SC (N = 98)): 4
- Upper respiratory tract infection, percent of subjects ([2]; 1.75 mg SC (N = 98)): (4%)
- Vomiting leading to withdrawal, number of subjects ([2]; 1.75 mg SC (N = 98)): 3
- Vomiting leading to withdrawal, percent of subjects ([2]; 1.75 mg SC (N = 98)): (3%)
- subjects discontinuing due to an adverse event ([2]; 1.75 mg subcutaneous dose): 8%
- tolerability during the trial ([2]; 0.75-1.75 mg SC): well-tolerated
- serious adverse events considered related to treatment ([2]; of 7 serious adverse events): none
